Experimental data as given in ChEMBL document CHEMBL4842349, “Enhanced pyrazolopyrimidinones cytotoxicity against glioblastoma cells activated by ROS-Generating cold atmospheric plasma” (Eur J Med Chem, 2021).
Calls of active or inactive are those of the source. The rule behind the calls is not given here.

Key:
U-251 [1] = experiment: Cytotoxicity against human U-251MG cells assessed as reduction in cell viability measured after 48 hrs by alamar blue assay; type: functional, cell-based; conditions: U-251, 48 h
U-251 [2] = experiment: Cytotoxicity against cold atmospheric plasma (CAP)-treated human U-251MG cells assessed as decrease in cell viability treated with CAP for 30 secs followed by incubated with compound for 48 hrs by alamar blue assay; type: functional, cell-based; conditions: U-251, 48 h
U-251 [3] = experiment: Cytotoxicity against human U-251MG cells assessed as decrease in cell viability incubated for 6 days by alamar blue assay; type: functional, cell-based; conditions: U-251, 144 h
U-251 [4] = experiment: Cytotoxicity against cold atmospheric plasma (CAP)-treated human U-251MG cells assessed as decrease in cell viability treated with CAP for 15 secs followed by incubated with compound for 6 days by alamar blue assay; type: functional, cell-based; conditions: U-251, 144 h
U-251 [5] = experiment: Cytotoxicity against cold atmospheric plasma (CAP)-treated human U-251MG cells assessed as decrease in cell viability treated with CAP for 30 secs followed by incubated with compound for 6 days by alamar blue assay; type: functional, cell-based; conditions: U-251, 144 h
U-251 [6] = experiment: Cytotoxicity against human U-251MG cells assessed as decrease in cell viability by measuring combination index treated with cold atmospheric plasma for 10 secs followed by incubated with compound for 48 hrs by alamar blue assay; type: functional
U-251 [7] = experiment: Cytotoxicity against human U-251MG cells assessed as reduction in cell viability at 0.3 uM measured after 48 hrs by alamar blue assay relative to control; type: functional
U-251 [8] = experiment: Cytotoxicity against human U-251MG cells assessed as reduction in cell viability at 290 uM measured after 48 hrs by alamar blue assay relative to control; type: functional
U-251 [9] = experiment: Cytotoxicity against human U-251MG cells assessed as reduction in cell viability at 2000 uM measured after 48 hrs by alamar blue assay relative to control; type: functional
U-251 [10] = experiment: Cytotoxicity against human U-251MG cells assessed as decrease in live cells stained with green (Calcein-AM) at 0.3 to 2000 uM measured after 48 hrs by Live/dead staining based fluorescent analysis; type: functional, cell-based; conditions: dose 0.3-2000 µM
U-251 [11] = experiment: Cytotoxicity against human U-251MG cells assessed as increase in dead cells stained with red (EthD-1) at 0.3 to 2000 uM measured after 48 hrs by Live/dead staining based fluorescent analysis; type: functional, cell-based; conditions: dose 0.3-2000 µM
U-251 [12] = experiment: Cytotoxicity against human U-251MG cells assessed as distinct morphological changes at 0.3 to 2000 uM measured after 48 hrs by Live/dead staining based fluorescent analysis; type: functional, cell-based; conditions: dose 0.3-2000 µM
HEK293 [13] = experiment: Cytotoxicity against human HEK293 cells assessed as reduction in cell viability measured after 48 hrs by alamar blue assay; type: functional, cell-based; conditions: HEK293, 48 h
[14] = Prodrug activation in human U-251MG cells assessed as increase in cold atmospheric plasma (CAP) induced ROS-mediated cytotoxicity treated with CAP for 30 secs in DMSO followed by incubated with compound for 48 hrs by alamar blue assay; type: functional, cell-based; conditions: U-251, 48 h
[15] = Prodrug activation in human U-251MG cells assessed as increase in cold atmospheric plasma (CAP) induced ROS-mediated cytotoxicity treated with CAP for 10 mins in DMSO followed by incubated with compound for 48 hrs by alamar blue assay; type: functional, cell-based
[16] = Prodrug activation in human U-251MG cells assessed as increase in cold atmospheric plasma (CAP) induced ROS-mediated cytotoxicity treated with CAP for 10 secs followed by incubated with compound for 48 hrs by alamar blue assay; type: functional, cell-based; conditions: U-251, 48 h
[17] = Prodrug activation in human U-251MG cells assessed as increase in cold atmospheric plasma (CAP) induced ROS-mediated cytotoxicity treated with CAP for 20 secs followed by incubated with compound for 48 hrs by alamar blue assay; type: functional, cell-based; conditions: U-251, 48 h
[18] = Prodrug activation in human U-251MG cells assessed as increase in cold atmospheric plasma (CAP) induced ROS-mediated cytotoxicity treated with CAP for 30 secs followed by incubated with compound for 48 hrs by alamar blue assay; type: functional, cell-based; conditions: U-251, 48 h
[19] = Prodrug activation in human U-251MG cells assessed as increase in cold atmospheric plasma (CAP) induced ROS-mediated cytotoxicity treated with CAP for 40 secs followed by incubated with compound for 48 hrs by alamar blue assay; type: functional, cell-based; conditions: U-251, 48 h
[20] = Prodrug activation in human U-251MG cells assessed as increase in cold atmospheric plasma (CAP) induced ROS-mediated cytotoxicity treated with CAP for 40 secs followed by incubated with compound for 48 hrs in presence of NAC by alamar blue assay; type: functional, cell-based; conditions: U-251, 48 h
U-251 [21] = experiment: Prodrug activation in human U-251MG cells assessed as cell cytotoxicity treated with prodrug in overnight storage cold atmospheric plasma (CAP) activated culture medium for 48 hrs by Alamar blue assay; type: functional, cell-based
U-251 [22] = experiment: Prodrug activation in CAP treated human U-251MG cells assessed as cell cytotoxicity incubated with cold atmospheric plasma (CAP) treated culture medium for 0 to 5 hrs followed by incubation with fresh medium containing prodrug for 48 hrs by Alamar blue assay; type: functional, cell-based
[23] = Prodrug activation in human U-251MG cells assessed as decrease in cell viability at low concentrations in presence of AAPH measured after 48 hrs by Alamar blue assay; type: functional
[24] = Prodrug activation in human HEK293 cells assessed as decrease in cell viability at low concentrations in presence of AAPH measured after 48 hrs by Alamar blue assay; type: functional
U-251 [25] = experiment: Prodrug activation in human U-251MG cells assessed as enhancement of cytotoxicity at >200 uM in presence of 3 mM AAPH measured after 48 hrs by Alamar blue assay; type: functional, cell-based; conditions: dose microM >200, time 48.0 hrs
HEK293 [26] = experiment: Prodrug activation in human HEK293 cells assessed as enhancement of cytotoxicity at >200 uM in presence of 3 mM AAPH measured after 48 hrs by Alamar blue assay; type: functional, cell-based; conditions: dose microM >200, time 48.0 hrs
U-251 [27] = experiment: Prodrug activation in human U-251MG cells assessed as enhancement of cytotoxicity at >200 uM combined with 0.5 mMAAPH measured after 48 hrs by Alamar blue assay; type: functional, cell-based; conditions: dose microM >200, time 48.0 hrs
HEK293 [28] = experiment: Prodrug activation in human HEK293 cells assessed as enhancement of cytotoxicity at >200 uM combined with 0.5 mM AAPH measured after 48 hrs by Alamar blue assay; type: functional, cell-based; conditions: dose microM >200, time 48.0 hrs
U-251 [29] = experiment: Cytotoxicity against human U-251MG cells assessed as decrease in cell viability by measuring combination index treated with cold atmospheric plasma for 20 secs followed by incubated with compound for 48 hrs by alamar blue assay; type: functional
U-251 [30] = experiment: Cytotoxicity against human U-251MG cells assessed as decrease in cell viability by measuring combination index treated with cold atmospheric plasma for 30 secs followed by incubated with compound for 48 hrs by alamar blue assay; type: functional
U-251 [31] = experiment: Cytotoxicity against human U-251MG cells assessed as decrease in cell viability by measuring combination index treated with cold atmospheric plasma for 40 secs followed by incubated with compound for 48 hrs by alamar blue assay; type: functional
U-251 [32] = experiment: Prodrug activation in human U-251MG cells assessed as enhancement of cytotoxicity pretreated with prodrug followed by cold atmospheric plasma (CAP) treatment for 10 to 40 sec in culture medium and measured after 48 hrs by alamar blur assay; type: functional, cell-based

With `COc1ccc(-c2cc(=O)n3nc(-c4ccccc4)cc3[nH]2)cc1` the IC50 (U-251 [1]) was 13.4 µM and the IC50 (U-251 [2]) was 5670 µM.

`O=c1cc(-c2ccccc2)[nH]c2cc(-c3ccc(F)cc3)nn12` showed an IC50 (U-251 [1]) of 74.6 µM and an IC50 (U-251 [2]) of 44.4 µM.

`Cn1nnc2c(C(N)=O)ncn2c1=O` [TEMOZOLOMIDE] showed an IC50 (U-251 [3]) of 12.7 µM, an IC50 (U-251 [4]) of 7.28 µM and an IC50 (U-251 [5]) of 6.43 µM.

In the case of `CCCCc1cc2[nH]c(-c3cc(C(F)(F)F)cc(C(F)(F)F)c3)cc(=O)n2n1`, the IC50 (U-251 [1]) is reported as 11.3 µM and the IC50 (U-251 [2]) is reported as 11.4 µM.

Work on `COc1ccc(-c2cc(=O)n3nc(C(C)C)cc3[nH]2)cc1` yielded an IC50 (U-251 [1]) of 197 µM and an IC50 (U-251 [2]) of 127 µM.

Work on `CC(C)(C)c1cc2[nH]c(C(C)(C)C)cc(=O)n2n1` yielded an IC50 (U-251 [1]) of 941 µM and an IC50 (U-251 [2]) of 62.4 µM.

`CC(C)c1cc2[nH]c(-c3cc(C(F)(F)F)cc(C(F)(F)F)c3)cc(=O)n2n1` showed an IC50 (U-251 [1]) of 42.9 µM and an IC50 (U-251 [2]) of 19 µM.

With `Cc1cc2[nH]c(-c3ccccc3)cc(=O)n2n1` the CI (U-251 [6]) was 0.311, the IC50 (U-251 [1]) was 293 µM and the IC50 (U-251 [2]) was 56.8 µM. The Activity (U-251 [7]) was 100%, the Activity (U-251 [8]) was 50% and the Activity (U-251 [9]) was 10%. For the same molecule, the Activity (U-251 [10]) was “Active”, the Activity (U-251 [11]) was “Active” and the Activity (U-251 [12]) was “Active”. The IC50 (HEK293 [13]) was 123 µM, the IC50 [14] was 215 µM and the IC50 [15] was 246 µM. The IC50 [16] was 54.4 µM, the IC50 [17] was 31.1 µM and the IC50 [18] was 39.2 µM. The IC50 [19] was 37.1 µM, the IC50 [20] was 95.7 µM and the Activity (U-251 [21]) was “inactive”. The Activity (U-251 [22]) was “inactive”, the Activity [23] was 50% and the Activity [24] was 50%. For the same molecule, the Activity (U-251 [25]) was “inactive”, the Activity (HEK293 [26]) was “inactive” and the Activity (U-251 [27]) was “inactive”. For the same molecule, the Activity (HEK293 [28]) was “inactive”, the CI (U-251 [29]) was 0.3352 and the CI (U-251 [30]) was 0.4756. It also gave a CI (U-251 [31]) of 0.578.

In the case of `O=c1cc(-c2ccccc2)[nH]c2cc(-c3cccc(Cl)c3)nn12`, the IC50 (U-251 [1]) is reported as 23.3 µM and the IC50 (U-251 [2]) is reported as 38.2 µM.

For `Cc1cc(C)cc(-c2cc(=O)n3nc(C)cc3[nH]2)c1`, the Activity (U-251 [32]) was “inactive”.

Molecule `O=c1cc(-c2ccccc2)[nH]c2cc(-c3ccccc3)nn12` has an IC50 (U-251 [1]) of 77.7 µM and an IC50 (U-251 [2]) of 73.6 µM.

In the case of `CC(C)(C)c1cc2[nH]c(-c3cc(C(F)(F)F)cc(C(F)(F)F)c3)cc(=O)n2n1`, the IC50 (U-251 [1]) is reported as 367 µM and the IC50 (U-251 [2]) is reported as 462 µM.

For `Cc1cc(C)cc(-c2cc(=O)n3nc(C(C)C)cc3[nH]2)c1`, the IC50 (U-251 [1]) was 502 µM and the IC50 (U-251 [2]) was 609 µM.

In the case of `Cc1c(-c2ccccc2)[nH]c2cc(C(C)C)nn2c1=O`, the IC50 (U-251 [1]) is reported as 137 µM and the IC50 (U-251 [2]) is reported as 86.3 µM.

Work on `CC(C)c1cc2[nH]c(-c3ccc([N+](=O)[O-])cc3)cc(=O)n2n1` yielded an IC50 (U-251 [1]) of 25.5 µM and an IC50 (U-251 [2]) of 12.9 µM.

With `Cc1ccc(-c2cc3[nH]c(-c4ccccc4)cc(=O)n3n2)cc1` the IC50 (U-251 [1]) was 148 µM and the IC50 (U-251 [2]) was 86.7 µM.
